Tests used:
Botrytis cinerea = test: Mycelia Inhibition; assay type: cell-based; settings: 25° C., 24 hours
Protocol: (§1) The compounds of the present invention were evaluated for fungicidal effectiveness by means of a mycelial inhibition test. This test is designed to measure the fungitoxic acitvity of fungicidal chemicals in terms of their degree of inhibition of mycelium growth. Each compound to be tested was dissolved in acetone to 500 ppm concentration. Paper strips were innoculated with the particular mycelium growth by covering the paper with a potato dextrose broth culture of mycelial suspension. The innoculated papers were then placed on potato dextrose agar plates and sprayed by means of a micro sprayer with the fungicidal solution. The treated paper strips were incubated at 25° C. and data is taken after 24 hours. Fungicidal activities are measured by a zone of inhibited mycelial growth from the center of the paper strip. The effectiveness of the compounds tested for fungicidal activity is reported in Table VI in terms of the microgram/cm^2 for 99% control of the fungus.

Rhizoctonia solani = test: Mycelia Inhibition; assay type: cell-based; settings: 25° C., 24 hours
Protocol: as §1

Aspergillus niger = test: Mycelia Inhibition; assay type: cell-based; settings: 25° C., 24 hours
Protocol: as §1

Fusarium moniloforma = test: Mycelia Inhibition; assay type: cell-based; settings: 25° C., 24 hours
Protocol: as §1

Alternaria solani = test: Tomato Early Blight control; assay type: in vivo; settings: 250-ppm spray, tomato seedlings, inoculated 1 day later
Protocol: Compounds of the invention were tested for the control of the Tomato Early Blight organism, Alternaria solani conidia. […] The tomato plans were sprayed with a 250-ppm solution of the test compound in an acetone-and-water solution containing a small amount of a non-ionic emulsifier. […] Percent disease control was based on the percent disease development on untreated check plants.

Septoria apii = assay type: in vivo; settings: sprayed celery plants; concentration not given
[1] = system: two spotted-mites (Tetramuchus urticae); test: Mite control test, adult mites; assay type: in vivo; settings: 40-ppm leaf dip, adult mortality one day after treatment; 1440 min
Protocol: (§2) Compounds of the invention were tested for the control mites and mite eggs by the following procedure. Pinto bean leaves were invested with two spotted-mites (Tetramuchus urticae). The mites were then allowed to lay eggs on the leaves. After 48 hours, the leaves were dipped into a water/acetone solution containing a small amount of a non-ionic surfactant and 40-ppm of the test compound. The treated leaves were then maintained at 85° F. One day after treatment, the mortality of adult mites was determined, and 7 days after treatment, the egg mortality (non-hatching eggs) was determined.

Phytophthora infestans = test: whole plant or invertebrate; assay type: in vivo; settings: in Solanum lycopersicum, 168 h, read-out: Tomato Late Blight, % Control
[2] = system: mite eggs (Tetramuchus urticae); test: Mite control test, mite eggs; assay type: in vivo; settings: 40-ppm leaf dip, egg mortality (non-hatching eggs) 7 days after treatment
Protocol: as §2

[3] = system: Watergrass (Echinochloa Crusgalli); test: Post-emergent herbicidal test; assay type: in vivo; settings: Echinochloa crus-galli, post-emergence, 504 h, 33 mcg/cm^2, 3 weeks, scale 0 (no phytotoxicity) to 100 (complete kill), read-out: Herbicidal Effectiveness (W)
Protocol: (§3) Post-emergent herbicidal tests with representative compounds of this invention were made using the following method.
(§4) An acetone solution of the test compound was prepared by mixing 750 mg of the compound, 220 mg of a nonionic surfactant and 25 ml of acetone. This solution was added to approximately 125 ml of water containing 156 mg of surfactant.
(§5) This test solution was uniformly sprayed on 2 similar pots of 24-day-old plants (approximately 15 to 25 plants per pot) at a dose of 33 mcg/cm^2. After the plants had dried, they were placed in a greenhouse and then watered intermittently at their bases, as needed. The plants were observed periodically for phytotoxic effects and physiological and morphological responses to the treatment. After 3 weeks, the herbicidal effectiveness of the compound was rated based on these observations. A 0-to-100 scale was used, 0 representing no phytotoxicity and 100 representing complete kill.

[4] = system: Crabgrass (Digitaria sanguinalis); test: Post-emergent herbicidal test; assay type: in vivo; settings: post-emergence, 504 h, 33 mcg/cm^2, 3 weeks, scale 0 (no phytotoxicity) to 100 (complete kill), read-out: Herbicidal Effectiveness (C)
Protocol: as §3, §4, §5

[5] = system: Lambsquarter (Chenopodium album); test: Post-emergent herbicidal test; assay type: in vivo; settings: post-emergence, 504 h, 33 mcg/cm^2, 3 weeks, scale 0 (no phytotoxicity) to 100 (complete kill), read-out: Herbicidal Effectiveness (P)
Protocol: as §3, §4, §5

[6] = system: Pigweed (Amaranthus retroflexus); test: Post-emergent herbicidal test; assay type: in vivo; settings: post-emergence, 504 h, 33 mcg/cm^2, 3 weeks, scale 0 (no phytotoxicity) to 100 (complete kill), read-out: Herbicidal Effectiveness
Protocol: as §3, §4, §5

Wild Oats (Avena fatua) = test: Post-emergent herbicidal test; assay type: in vivo; settings: post-emergence, 504 h, 33 mcg/cm^2, 3 weeks, scale 0 (no phytotoxicity) to 100 (complete kill), read-out: Herbicidal Effectiveness (O)
Protocol: as §3, §4, §5

[7] = system: Mustard (Brassica arvensis); test: Post-emergent herbicidal test; assay type: in vivo; settings: post-emergence, 504 h, 33 mcg/cm^2, 3 weeks, scale 0 (no phytotoxicity) to 100 (complete kill), read-out: Herbicidal Effectiveness (L)
Protocol: as §3, §4, §5

Erysiphe polygoni = test: Powdery Mildew control on bean seedlings; assay type: in vivo; settings: 250-ppm spray, about 10 days
Text: The powdery mildew test was made using bean seedlings (var. Bountiful) with well-developed primary leaves. The pathogen was Erysiphe polygoni. The bean seedlings were sprayed with a 250-ppm solution of the test compound in an acetone-water mixture containing a nonionic emulsifer. The treated plants were inoculated one day after spray application of the test compound with the pathogen. […] The rate of infection on the leaves was made after about 10 days. The percent disease control provided by a given test compound was based on the disease reduction relative to untreated check plants.

Compound	Mycelia Inhibition, for 99% control (B) (Botrytis cinerea)	Mycelia Inhibition, for 99% control (R) (Rhizoctonia solani)	Mycelia Inhibition, for 99% control (A) (Aspergillus niger)	Mycelia Inhibition, for 99% control (F) (Fusarium moniloforma)	Tomato Early Blight, % Control (Alternaria solani)	Celery Late Blight, % Control (Septoria apii)	Mite Control, % [1]	pest or weed control at 250 µg/mL (Phytophthora infestans)	Mite Eggs Control, % [2]	pest or weed control at 33 µg/cm2 [3]	pest or weed control at 33 µg/cm2 [4]	pest or weed control at 33 µg/cm2 [5]	pest or weed control at 33 µg/cm2 [6]	pest or weed control at 33 µg/cm2 (Wild Oats (Avena fatua))	pest or weed control at 33 µg/cm2 [7]	Powdery Mildew % Control (Erysiphe polygoni)
O=[N+]([O-])c1ccc(Oc2cccc(N=c3ssnc3Cl)c2)cc1 [Compound 18]	> 1.7 micrograms/cm^2	0.45 micrograms/cm^2	> 1.7 micrograms/cm^2	> 1.7 micrograms/cm^2	44%	64%	–	–	–	–	–	–	–	–	–	–
O=[N+]([O-])c1ccc(Oc2ccc(N=c3ssnc3Cl)cc2)cc1 [Compound 19]	–	0.88 micrograms/cm^2	> 1.7 micrograms/cm^2	> 1.7 micrograms/cm^2	–	62%	0%	51%	78%	–	–	–	–	–	–	–
O=[N+]([O-])c1ccc(Oc2ccccc2N=c2ssnc2Cl)cc1 [Compound 20]	–	1.3 micrograms/cm^2	> 1.7 micrograms/cm^2	> 1.7 micrograms/cm^2	–	62%	–	80%	–	–	–	–	–	–	–	–
Fc1ccccc1N=c1ssnc1Cl [Compound 22]	–	0.73 micrograms/cm^2	1.4 micrograms/cm^2	1.3 micrograms/cm^2	50%	80%	0%	–	39%	20%	0%	70%	70%	0%	85%	–
N#Cc1ccc(N=c2ssnc2Cl)cc1 [Compound 23]	0.78 micrograms/cm^2	0.6 micrograms/cm^2	> 1.7 micrograms/cm^2	1.4 micrograms/cm^2	90%	63%	–	97%	–	–	–	–	–	–	–	–
Cc1ccc(Cl)cc1N=c1ssnc1Cl [Compound 28]	–	–	–	–	–	–	85%	–	85%	65%	20%	95%	100%	45%	100%	90%
N#Cc1ccccc1N=c1ssnc1Cl [Compound 29]	–	–	–	–	–	44%	–	–	–	–	–	–	–	–	–	–
N#Cc1cc(C(F)(F)F)ccc1Oc1cccc(N=c2ssnc2Cl)c1 [Compound 30]	–	–	–	–	–	80%	–	–	–	–	–	–	–	–	–	–
